12 molecules from ChEMBL document CHEMBL1135180, “Synthesis and anti-influenza virus activity of 4-guanidino-7-substituted Neu5Ac2en derivatives” (Bioorg Med Chem Lett, 2002) can be followed below.

One test concerns Influenza A virus. Put plainly: Inhibition of plaque formation. The class given is functional, organism-based.
The target of test [1] is Neuraminidase (Influenza A virus (A/Puerto Rico/8/1934(H1N1)), UniProt P03468). Put plainly: Inhibition of sialidase activity. The class given is functional, Influenza A virus (strain: A/PR/8/34).
Chain of Neuraminidase (Influenza A virus (A/Puerto Rico/8/1934(H1N1)), UniProt P03468) (P03468 whole entry): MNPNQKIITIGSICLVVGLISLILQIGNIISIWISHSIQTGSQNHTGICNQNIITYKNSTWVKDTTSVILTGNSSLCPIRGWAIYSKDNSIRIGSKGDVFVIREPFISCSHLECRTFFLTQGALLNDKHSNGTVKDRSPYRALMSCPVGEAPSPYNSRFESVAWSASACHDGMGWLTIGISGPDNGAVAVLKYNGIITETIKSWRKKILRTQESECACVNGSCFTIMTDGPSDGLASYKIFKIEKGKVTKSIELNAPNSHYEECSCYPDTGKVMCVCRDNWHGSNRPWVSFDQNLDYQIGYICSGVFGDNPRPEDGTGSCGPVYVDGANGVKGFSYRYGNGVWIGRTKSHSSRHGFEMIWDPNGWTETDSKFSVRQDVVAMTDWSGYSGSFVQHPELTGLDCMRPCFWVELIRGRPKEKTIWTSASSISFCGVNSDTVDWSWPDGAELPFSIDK

Each structure is given as a SMILES string. Values after ≈ are worked out from the molar mass of the structure shown.

For orientation: IC50 means the concentration that gives 50% inhibition. A higher IC50 goes with lower potency. Turning to `CCCCCCCC(=O)N[C@@H]([C@@H]1OC(C(=O)O)=C[C@H](N=C(N)N)[C@H]1NC(C)=O)[C@H](O)CO.O=C(O)C(F)(F)F`, the concentration for half-maximal inhibition (IC50) was 100 ng/mL in the test with Influenza A virus and 84 nM in test [1].

For the molecule `CCCCCCCCCCCCCCCC(=O)N[C@@H]([C@@H]1OC(C(=O)O)=C[C@H](N=C(N)N)[C@H]1NC(C)=O)[C@H](O)CO.O=C(O)C(F)(F)F`, the values for the IC50 (with Influenza A virus; in test [1]) were 80 ng/mL and 68.7 nM, respectively. The matching figures for `CCO[C@@H]([C@@H]1OC(C(=O)O)=C[C@H](N=C(N)N)[C@H]1NC(C)=O)[C@H](O)CO.O=C(O)C(F)(F)F`: 0.7 ng/mL and 30.8 nM.

In the case of `CC(=O)N[C@H]1[C@H]([C@H](F)[C@H](O)CO)OC(C(=O)O)=C[C@@H]1NC(=N)N.O=C(O)C(F)(F)F`, the figures for the IC50 (in the test with Influenza A virus; in test [1]) were 1.8 ng/mL and 1.78 nM, respectively. The matching figures for `CC(=O)N[C@H]1[C@H]([C@H](N)[C@H](O)CO)OC(C(=O)O)=C[C@@H]1NC(=N)N.O=C(O)C(F)(F)F`: 20 ng/mL and 84 nM. With `CC(=O)N[C@H]1[C@H]([C@H](O)[C@H](O)CO)OC(C(=O)O)=C[C@@H]1NC(=N)N` [ZANAMIVIR], the IC50 in the test on Influenza A virus amounted to 1 ng/mL (≈ 3.01 nM).

In the test with Influenza A virus, `CO[C@@H]([C@@H]1OC(C(=O)O)=C[C@H](N=C(N)N)[C@H]1NC(C)=O)[C@H](O)CO.O=C(O)C(F)(F)F` came in with an IC50 of 3 ng/mL. This IC50 lies about 3-fold higher than the previous one. Consider `CC(=O)N[C@@H]1[C@@H](N=C(N)N)C=C(C(=O)O)O[C@H]1C[C@H](O)CO.O=C(O)C(F)(F)F`, for which the concentration for half-maximal inhibition (IC50) in the test with Influenza A virus is 10 ng/mL; in test [1], 93 nM. Regarding `CC(=O)N[C@@H]1[C@@H](NC(=N)N)C=C(C(=O)O)O[C@H]1C(F)(F)[C@H](O)CO.O=C(O)C(F)(F)F`, the IC50 in the test on Influenza A virus is 400 ng/mL; in test [1], 1030 nM. The molecule `CC(=O)N[C@@H]([C@@H]1OC(C(=O)O)=C[C@H](N=C(N)N)[C@H]1NC(C)=O)[C@H](O)CO` showed a 50% inhibitory concentration (IC50) in test [1] of 37.1 nM. Turning to `CCC(=O)N[C@@H]([C@@H]1OC(C(=O)O)=C[C@H](N=C(N)N)[C@H]1NC(C)=O)[C@H](O)CO.O=C(O)C(F)(F)F`, the IC50 in the test on Influenza A virus is 4 ng/mL; in test [1], 19.9 nM. In the case of `CC(=O)N[C@H]1[C@H]([C@H](N=[N+]=[N-])[C@H](O)CO)OC(C(=O)O)=C[C@@H]1NC(=N)N.O=C(O)C(F)(F)F`, the IC50 is 0.3 ng/mL in the test on Influenza A virus and 3.39 nM in test [1].
